Test results taken from ChEMBL document CHEMBL5729354, “Substituted pyrrolo[2,3-d]pyrimidines as JAK inhibitors” (2022).

Assays:
[1] = biological target: Tyrosine-protein kinase JAK2 (Homo sapiens, UniProt O60674); experiment: (§1) JAK/TYK2 Assay: 10 mM test compound stock or 1 mM control compound stock (tofocitinib, ruxolitinib or staurosporine) in DMSO was diluted to 0.4 mM in DMSO. A 3-fold series dilution was then performed in DMSO to generate 10 different compound concentrations. The assay was carried out in 384-well white plate. 0.5 uL of 40× compound DMSO solution at different concentrations was mixed with 10 uL 2× enzyme prepared in reaction buffer (20 mM HEPES, 10 mM MgCl2, 0.01% Tween, 1 mM DTT, pH 7.5). 10 uL 2× substrate mixture prepared in reaction buffer was then added to start the reaction. A short spin was done to settle down all solutions to the bottom of the plate. Final concentrations of test compound in the reaction mixture were 10000, 3333, 1111, 370, 123, 41.2, 13.7, 4.57, 1.52 and 0.51 nM. Concentrations of control compound were ten times less. Enzymatic reaction was conducted at 25° C. for 1-2 hours. 10 uL of Kinase Glo Reagents was added to stop the reaction and generate the luminescent signal which was measured using Envision. Luminescence signal was inversely related to kinase activity. […] The mixture without any compound was the positive control. [ATP] [sub] timeJAK1 7.5 nM 2 uM 30 uM (IRS-1) 1 hrJAK2 0.8 nM 2 uM 4 uM (pEY) 1 hrJAK3 1.5 nM 2 uM 4 uM (pEY) 1 hrTYK2 9 nM 2 uM 30 uM (IRS-1) 1 hr
Tyrosine-protein kinase JAK2, sequence (O60674 whole entry): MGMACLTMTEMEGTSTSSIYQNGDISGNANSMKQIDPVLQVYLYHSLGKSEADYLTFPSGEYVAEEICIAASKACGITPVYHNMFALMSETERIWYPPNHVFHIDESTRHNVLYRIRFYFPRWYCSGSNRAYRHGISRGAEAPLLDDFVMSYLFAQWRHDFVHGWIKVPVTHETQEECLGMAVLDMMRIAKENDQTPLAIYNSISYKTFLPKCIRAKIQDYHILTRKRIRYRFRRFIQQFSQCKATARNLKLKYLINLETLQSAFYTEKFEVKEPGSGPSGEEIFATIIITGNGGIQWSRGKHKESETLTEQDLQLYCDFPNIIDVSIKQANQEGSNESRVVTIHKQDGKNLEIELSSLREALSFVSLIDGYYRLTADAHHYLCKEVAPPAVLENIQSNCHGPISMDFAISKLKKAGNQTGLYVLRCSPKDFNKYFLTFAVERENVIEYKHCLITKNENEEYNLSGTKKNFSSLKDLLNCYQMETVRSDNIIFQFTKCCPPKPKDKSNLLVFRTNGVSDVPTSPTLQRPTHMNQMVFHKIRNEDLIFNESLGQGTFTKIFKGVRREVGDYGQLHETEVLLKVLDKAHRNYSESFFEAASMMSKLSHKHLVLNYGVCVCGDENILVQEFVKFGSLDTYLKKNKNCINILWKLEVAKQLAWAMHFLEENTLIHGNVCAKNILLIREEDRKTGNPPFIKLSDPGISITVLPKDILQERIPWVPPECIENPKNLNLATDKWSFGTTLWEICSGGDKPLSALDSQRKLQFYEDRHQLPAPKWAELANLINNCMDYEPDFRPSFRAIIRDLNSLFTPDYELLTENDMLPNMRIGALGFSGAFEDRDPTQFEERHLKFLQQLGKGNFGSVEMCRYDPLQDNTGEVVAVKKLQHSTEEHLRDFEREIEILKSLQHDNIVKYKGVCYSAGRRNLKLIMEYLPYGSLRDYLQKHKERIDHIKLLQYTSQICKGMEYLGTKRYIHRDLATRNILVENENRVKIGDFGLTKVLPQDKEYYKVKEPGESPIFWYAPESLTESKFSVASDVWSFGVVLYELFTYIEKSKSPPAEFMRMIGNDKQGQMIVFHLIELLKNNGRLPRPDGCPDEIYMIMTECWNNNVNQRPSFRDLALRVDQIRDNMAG

[2] = biological target: Non-receptor tyrosine-protein kinase TYK2 (Homo sapiens, UniProt P29597); experiment: as §1
Non-receptor tyrosine-protein kinase TYK2, sequence (P29597 whole entry): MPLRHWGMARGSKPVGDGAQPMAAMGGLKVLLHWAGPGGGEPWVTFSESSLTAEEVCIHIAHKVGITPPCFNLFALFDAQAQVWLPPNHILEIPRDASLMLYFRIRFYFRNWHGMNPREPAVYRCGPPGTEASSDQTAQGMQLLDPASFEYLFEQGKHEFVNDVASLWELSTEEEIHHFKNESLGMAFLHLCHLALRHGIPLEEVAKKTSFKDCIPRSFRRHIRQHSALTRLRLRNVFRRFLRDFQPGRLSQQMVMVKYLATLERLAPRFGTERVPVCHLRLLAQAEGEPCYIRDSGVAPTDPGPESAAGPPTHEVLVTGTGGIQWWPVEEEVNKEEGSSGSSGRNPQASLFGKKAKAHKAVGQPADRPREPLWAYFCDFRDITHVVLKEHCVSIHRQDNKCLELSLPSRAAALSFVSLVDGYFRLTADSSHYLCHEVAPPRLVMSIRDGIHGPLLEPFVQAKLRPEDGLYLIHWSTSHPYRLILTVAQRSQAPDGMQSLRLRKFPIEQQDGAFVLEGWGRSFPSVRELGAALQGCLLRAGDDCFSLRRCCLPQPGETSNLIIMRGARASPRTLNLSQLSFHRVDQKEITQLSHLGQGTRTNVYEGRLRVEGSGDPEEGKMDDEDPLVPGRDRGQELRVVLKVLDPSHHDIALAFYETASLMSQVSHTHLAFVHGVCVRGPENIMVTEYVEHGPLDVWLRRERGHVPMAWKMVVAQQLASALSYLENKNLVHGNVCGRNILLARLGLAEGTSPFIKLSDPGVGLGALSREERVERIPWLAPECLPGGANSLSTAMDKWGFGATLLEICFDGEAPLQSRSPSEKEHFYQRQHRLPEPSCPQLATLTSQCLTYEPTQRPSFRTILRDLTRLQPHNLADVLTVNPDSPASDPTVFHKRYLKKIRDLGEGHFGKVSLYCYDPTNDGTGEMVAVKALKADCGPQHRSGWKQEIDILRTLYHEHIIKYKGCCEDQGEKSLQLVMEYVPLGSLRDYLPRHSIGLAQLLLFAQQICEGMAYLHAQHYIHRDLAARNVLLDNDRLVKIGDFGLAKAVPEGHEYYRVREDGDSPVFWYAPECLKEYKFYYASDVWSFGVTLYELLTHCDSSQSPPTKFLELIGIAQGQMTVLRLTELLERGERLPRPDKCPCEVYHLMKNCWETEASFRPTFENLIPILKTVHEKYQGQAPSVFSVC

[3] = biological target: Tyrosine-protein kinase JAK1 (Homo sapiens, UniProt P23458); experiment: as §1
Tyrosine-protein kinase JAK1, sequence (P23458 whole entry): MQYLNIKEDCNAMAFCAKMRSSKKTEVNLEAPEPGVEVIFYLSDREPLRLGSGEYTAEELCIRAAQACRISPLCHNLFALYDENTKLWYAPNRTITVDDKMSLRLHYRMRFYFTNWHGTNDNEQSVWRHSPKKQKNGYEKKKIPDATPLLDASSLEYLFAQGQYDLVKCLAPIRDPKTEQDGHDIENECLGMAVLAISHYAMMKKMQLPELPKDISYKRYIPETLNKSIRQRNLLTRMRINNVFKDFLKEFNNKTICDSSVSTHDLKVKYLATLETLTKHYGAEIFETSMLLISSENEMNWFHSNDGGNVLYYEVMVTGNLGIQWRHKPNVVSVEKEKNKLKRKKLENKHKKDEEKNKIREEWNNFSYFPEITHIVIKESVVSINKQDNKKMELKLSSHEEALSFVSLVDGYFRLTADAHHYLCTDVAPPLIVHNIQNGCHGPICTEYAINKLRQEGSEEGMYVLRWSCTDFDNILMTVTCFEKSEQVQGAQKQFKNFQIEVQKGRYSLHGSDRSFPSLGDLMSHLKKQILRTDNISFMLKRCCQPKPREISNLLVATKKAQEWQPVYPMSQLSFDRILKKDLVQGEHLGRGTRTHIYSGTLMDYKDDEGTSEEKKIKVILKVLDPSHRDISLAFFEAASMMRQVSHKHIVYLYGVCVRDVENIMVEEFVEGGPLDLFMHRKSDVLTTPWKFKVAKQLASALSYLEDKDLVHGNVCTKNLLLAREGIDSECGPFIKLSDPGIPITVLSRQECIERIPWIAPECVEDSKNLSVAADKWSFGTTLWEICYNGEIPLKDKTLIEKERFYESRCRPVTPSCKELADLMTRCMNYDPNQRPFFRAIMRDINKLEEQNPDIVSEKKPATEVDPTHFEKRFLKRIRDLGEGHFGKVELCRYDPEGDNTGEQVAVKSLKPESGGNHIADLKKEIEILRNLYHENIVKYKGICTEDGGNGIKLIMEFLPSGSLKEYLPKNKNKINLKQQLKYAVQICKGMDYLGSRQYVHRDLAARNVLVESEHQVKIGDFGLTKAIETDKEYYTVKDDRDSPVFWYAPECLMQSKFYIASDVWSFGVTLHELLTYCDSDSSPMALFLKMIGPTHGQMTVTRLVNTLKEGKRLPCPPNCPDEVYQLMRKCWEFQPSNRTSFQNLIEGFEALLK

[4] = biological target: T1, Tyrosine-protein kinase JAK3 (Homo sapiens, UniProt P52333); experiment: as §1
T1 sequence (P52333 whole entry): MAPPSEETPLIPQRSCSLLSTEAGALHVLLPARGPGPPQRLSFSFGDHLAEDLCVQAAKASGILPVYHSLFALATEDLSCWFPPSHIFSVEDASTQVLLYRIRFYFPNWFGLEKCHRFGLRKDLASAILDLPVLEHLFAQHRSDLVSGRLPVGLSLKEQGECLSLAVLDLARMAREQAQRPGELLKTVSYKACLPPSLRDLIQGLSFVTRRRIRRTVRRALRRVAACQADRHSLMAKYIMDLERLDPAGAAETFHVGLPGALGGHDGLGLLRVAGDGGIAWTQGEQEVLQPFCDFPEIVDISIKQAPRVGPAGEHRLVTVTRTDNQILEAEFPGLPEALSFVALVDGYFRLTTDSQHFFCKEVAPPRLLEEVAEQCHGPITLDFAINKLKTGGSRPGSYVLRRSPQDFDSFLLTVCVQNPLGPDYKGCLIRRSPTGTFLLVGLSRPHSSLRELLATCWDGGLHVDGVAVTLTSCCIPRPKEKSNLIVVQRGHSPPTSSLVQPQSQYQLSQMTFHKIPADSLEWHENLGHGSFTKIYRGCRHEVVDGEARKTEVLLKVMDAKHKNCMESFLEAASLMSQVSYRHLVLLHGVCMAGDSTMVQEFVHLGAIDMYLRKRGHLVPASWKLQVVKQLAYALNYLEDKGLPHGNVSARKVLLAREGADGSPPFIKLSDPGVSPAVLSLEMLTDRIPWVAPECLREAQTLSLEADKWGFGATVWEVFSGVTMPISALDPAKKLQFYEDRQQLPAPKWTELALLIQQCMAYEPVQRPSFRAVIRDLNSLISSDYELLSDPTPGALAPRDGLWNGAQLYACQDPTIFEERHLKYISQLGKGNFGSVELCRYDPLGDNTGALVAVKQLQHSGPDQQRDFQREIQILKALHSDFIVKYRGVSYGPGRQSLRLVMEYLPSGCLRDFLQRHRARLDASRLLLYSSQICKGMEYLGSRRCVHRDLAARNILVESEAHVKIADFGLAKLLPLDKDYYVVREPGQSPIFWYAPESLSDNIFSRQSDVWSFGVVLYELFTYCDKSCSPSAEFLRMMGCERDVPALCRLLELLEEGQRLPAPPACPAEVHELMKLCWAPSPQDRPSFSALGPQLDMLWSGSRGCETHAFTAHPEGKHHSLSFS

Measured: IC50

CCC(CC)Cn1ccc2cnc(Nc3cnn(CC(=O)O[C@@H]4C[C@@H](C(=O)OC)N(C)C4)c3)nc21
< 100 nM: [1] | [2] | [3] | [4]
